From patent US9567347B2, “Use of small molecule inhibitors targeting the interaction between RAC GTPase and p67(phox)” (CHILDREN'S HOSPITAL MEDICAL CENTER, priority 2012, dated 2017)

How the values were obtained:
[1] = tested on: fMLP-activated primary murine neutrophils; assay: Nitroblue tetrazolium (NBT) assay; type: cell-based, mouse; settings: for ROS inhibition (NBT positive cells): 10 μM, FIG. 9
Method: Primary neutrophils from mouse bone marrow were subjected to fMLP stimulation in the presence or absence of various chemicals for 5 min. Cells were stained for NBT activity as previously described in the incorporated materials of Filippi et al. (2004) to reveal relative ROS production.
To complement the DCFDA based FACS analysis and the luminol chemiluminescence method, nitroblue tetrazolium (NBT) assays were performed in fMLP-activated primary murine neutrophils (FIG. 3C).
The NBT assay was performed in primary murine neutrophils to measure ROS neutrophil production. […] Each compound was used at 10 μM.

LPS-induced ALI in mice = settings: 5 mg/kg i.p. every 8 hours, 24 hours after LPS
Method: FIG. 8. […] Mice were challenged with LPS or vehicle via intratracheal administration and treated or not with compound 100 (indicated as “NOX2-I”; 5 mg/kg, 3 injections every 8 hours). (A) Isoprostane, as an indication of ROS production, was measured in lung homogenates 24 hours following LPS challenge by ELISA. (B) Lung histology was performed 24 hours after LPS challenge. (n=3 mice per group). Representative images of histology are shown.
One life-threatening consequence of hemorrhagic shock is acute lung injury (ALI), which is associated with infiltration of neutrophils and release of ROS. A model of LPS-induced ALI was used in mice to test efficacy of the difluoro compound 100 in vivo.
Mice (N=3 per group) were treated with LPS (100 ng in 80 μl PBS) or PBS (vehicle) employing oral-tracheal intubation. Following challenge, the mice were injected i.p. with 5 mg/kg of compound 100, every 8 hours. The relative level of ROS release in the lungs upon LPS challenge was assessed by measuring 8-isoprostane by ELISA in lung tissue homogenates. Isoprostanes are a family of eicosanoids produced by the oxidation of tissue phospholipids by oxygen radicals. The amount of 8-isoprostane generated is thus an indication of ROS production.

[2] = tested on: fMLP-stimulated differentiated HL-60 cells; assay: H2-DCFDA FACS ROS production assay in fMLP-stimulated differentiated HL-60 cells; type: cell-based, human; settings: treated 2 hours, FIG. 5B
Method: HL-60 cells were propagated in RPMI 1640 medium containing 10% heat inactivated fetal bovine serum, 2 mM L-glutamine, 100 U/mL penicillin/streptomycin at 37° C. in air containing 5% CO2. For differentiation, HL-60 cells were cultured in 1.3% dimethyl sulfoxide (DMSO) as previously described (Servant, G., et al. (1999) Mol Biol Cell 10, 1163-1178, hereby incorporated by reference in its entirety). Primary murine neutrophils were isolated from C57Bl/6 mouse bone marrow according to a published protocol (Filippi et al., (2004) Nat Immunol 5, 744-751, hereby incorporated by reference in its entirety) using a discontinuous Percoll (Pharmacia) gradient and were utilized immediately in experiments. Human neutrophils were obtained from fresh blood (IRB #2010-1855, Cincinnati Children's Hospital medical Center) following a well established protocol using density gradient separation from whole blood (Oh et al. (2008) J Vis Exp., 17, pii: 745, hereby incorporated by reference in its entirety).
(§1) Cells (5×10^5) were harvested and processed for Annexin V/7AAD staining according to manufacturer's protocol (Becton Dickinson). Flow cytometry data were acquired on a FACS Canto bench-top flow cytometer (Becton Dickinson) and the cell cycle distributions were determined by […] using Flo-Jo software (Bosco et al (2010) Blood 115, 3320-3328, hereby incorporated by reference in its entirety). For ROS production assay, primary murine neutrophils or dHL60 cells were incubated with compound for 2 hours prior to addition of H2-DCFDA according to manufacturer's instructions (Molecular Probes). Cells were then stimulated with 10 μM fMLP (Sigma), 1 mM CaCl2, and 1.5 mM MgCl2 for 15 minutes prior to wash and FACS analysis for mean fluorescence intensity. Non-fMLP stimulated control values were subtracted from all samples before normalization to fMLP-stimulated, vehicle control treated sample in order to display percent ROS inhibition.
To validate the hits from preliminary screening in cells, several cellular functional assays were performed using different cell types to measure the effect of compounds on inhibition of ROS production. ROS levels were first analyzed by fluorescence-activated cell sorting (FACS) in HL-60 pre-incubated with compounds for 2 hr prior to stimulation of ROS production. The p67^phox inhibitor, Phox-I1, was tested against NAC (a ROS scavenger), DPI (a broad range inhibitor of NADPH oxidase), and NSC23766 (a Rac-GTP inhibitor; FIG. 2A). […] H2O2 added to the cells was included as a positive control for ROS measurement. Second, to test the capacity of Phox-I1 to inhibit ROS production in a primary cell context, primary murine neutrophils isolated from mouse bone marrow were treated with increasing concentrations of Phox-I1 and the efficacy of inhibition of fMLP-stimulated ROS production was analyzed. DPI treatment was included as a positive control for inhibition of ROS production (FIG. 2B). […] Next, to ascertain the optimal effective dose for ROS inhibition in cells, a dose titration series of Phox-I1 was administered to dHL-60 cells (FIG. 2C).

neutrophils = assay: toxicity to neutrophils; type: cell-based, mouse
dHL-60 cells [3] = assay: antioxidant (ROS scavenger) test in dHL-60 cells pre-stimulated with fMLP; type: cell-based, human; settings: fMLP 30 min prior to treatment
Method: (A) Apoptosis analysis by FACS of HL-60 cells treated with compound or vehicle control for 2 hours prior to 7-AAD and Annexin V staining. (B) HL-60 cells from A were harvested and lysates were immunoblotted for levels of pPAK, and actin was used as a control for loading. (C) F-actin reorganization in freshly isolated fMLP-stimulated primary murine neutrophils was analyzed. […] Cells were exposed to a 10 μM dose of Phox-I1, Phox-I2, and Analog 13, and 200 nM nocodazole. (D) The effect of Phox-I on NOX4 mediated ROS production was tested in primary murine neutrophils transfected with a NOX4 expressing plasmid. 10 μM Phox-I1 was applied to the cells for 30 min prior to ROS assay by luminol chemiluminescence in the presence of HRP. The fMLP-stimulated ROS activity in the presence or absence of 10 uM Phox-I1 was measured in parallel. (E) The antioxidant abilities of these lead compounds were tested by prestimulating dHL-60 cells with fMLP for 30 minutes prior to treatment with Phox-I1 or Phox-I2. Levels of superoxide were analyzed by DCFDA assay and FACS. NAC, apocyanin, DPI, and NSC23766 treated cells served as controls. […] (G) For stability assay, DMSO-differentiated HL-60 cells were treated with 20 μM dose of compound for the indicated time period prior to fMLP stimulation and DCFDA ROS production assay by FACS analysis.
Phox-I1 was then applied to primary murine neutrophils expressing the constitutively active NOX4. […] To further rule out that Phox-I1 and Phox-I2 may simply act as scavengers of ROS, dHL-60 cells were pre-stimulated with fMLP for 30 min prior to treatment with Phox-I1 or Phox-I2.

dHL-60 cells [4] = assay: DCFDA ROS assay after wash and recovery (affinity assay); type: cell-based, human; settings: 2 hr treatment, recovery 4 hr or 2 hr
Method: (A) Apoptosis analysis by FACS of HL-60 cells treated with compound or vehicle control for 2 hours prior to 7-AAD and Annexin V staining. (B) HL-60 cells from A were harvested and lysates were immunoblotted for levels of pPAK, and actin was used as a control for loading. (C) F-actin reorganization in freshly isolated fMLP-stimulated primary murine neutrophils was analyzed. […] Cells were exposed to a 10 μM dose of Phox-I1, Phox-I2, and Analog 13, and 200 nM nocodazole. (D) The effect of Phox-I on NOX4 mediated ROS production was tested in primary murine neutrophils transfected with a NOX4 expressing plasmid. 10 μM Phox-I1 was applied to the cells for 30 min prior to ROS assay by luminol chemiluminescence in the presence of HRP. The fMLP-stimulated ROS activity in the presence or absence of 10 uM Phox-I1 was measured in parallel. (E) The antioxidant abilities of these lead compounds were tested by prestimulating dHL-60 cells with fMLP for 30 minutes prior to treatment with Phox-I1 or Phox-I2. Levels of superoxide were analyzed by DCFDA assay and FACS. NAC, apocyanin, DPI, and NSC23766 treated cells served as controls. (F) For affinity assay, DMSO-differentiated HL-60 cells were treated with standard effective dose of indicated compound for 2 hours, washed, and allowed to recover in normal media for 4 hours or 2 hours prior to fMLP stimulation and DCFDA ROS production assay by FACS analysis. (G) For stability assay, DMSO-differentiated HL-60 cells were treated with 20 μM dose of compound for the indicated time period prior to fMLP stimulation and DCFDA ROS production assay by FACS analysis.
Next, a stability experiment was performed to determine the duration of effectiveness of the compound in suppressing neutrophils. To analyze the relative affinities of these compounds for the p67^phox target in cells, DCFDA ROS production assays were performed in dHL-60 cells treated with compound for 2 hr followed by wash and recovery for 4 hr or 2 hr in normal media prior to ROS production analysis.

[5] = tested on: undifferentiated HL-60 cells; assay: apoptosis analysis by FACS (Annexin V / 7-AAD); type: cell-based, human; settings: 20 or 100 μM
Method: as §1
In order to determine potency and cytotoxicity of Phox-I1 and Phox-I2, the levels of apoptosis were assessed in undifferentiated HL-60 cells treated with 20 or 100 μM Phox-I1, Phox-I2, or NSC23766 by FACS analysis for Annexin V (FIG. 4A).

Pak = assay: immunoblot of phosphorylated Pak; type: cell-based, human; settings: 18 hr treatment
Method: Whole-cell lysates were prepared by cell extraction using lysis buffer containing 20 mM Tris-HCl (pH 7.6), 100 mM NaCl, 10 mM MgCl2, 1% Triton X-100, 0.2% sodium deoxycholate, 1 mM phenylmethylsulfonyl fluoride, 10 μg/mL of leupeptin, 1 μg/mL of aprotinin, and 1 mM dithiothreitol for 30 min. Equal amounts of protein, as determined by Bradford assay, were resolved by SDS-PAGE. Specific proteins were detected by standard 9 immunoblotting procedures using the following primary antibodies: (Cell Signaling, 1:500 dilution) phospho-PAK1 (Ser144)/PAK2 (Ser141), (Sigma-Aldrich 1:500) β-Actin.
To analyze the biochemical specificity of these lead inhibitors on the effector pathways of active Rac1, undifferentiated HL-60 cells were treated with Phox-I1, Phox-I2, or NSC23766 for 18 hr. Immunoblot of the cell lysates was performed to probe the activity of Pak, a Rac effector other than p67^phox (FIG. 4B).

[6] = tested on: primary murine neutrophils; assay: F-actin immunofluorescence, polarization upon fMLP stimulation; type: cell-based, mouse; settings: 200 nM; control 80%
Method: Cells were pretreated with compound for 40 minutes prior to wash, and resuspended in HBSS with compound. Cells were allowed to adhere to fibronectin (Sigma Aldrich) coated glass coverslips (15 min) and then stimulated with 100 nM fMLP (3 min). Coverslips were then fixed with 3.7% paraformaldehyde (Sigma Aldrich) and then staining for […] was performed with rhodamine phalloidin per the manufacturer's instructions (Molecular Probes). Another method of addressing Rac-signaling specificity in neutrophils is by monitoring their ability to polarize actin to the leading edge upon fMLP stimulation. Neither Phox-I1, Phox-I2, nor an analog 13 (all at 10 μM), were able to block the Rac-mediated dynamic process of F-actin polarization to the leading edge of primary murine neutrophils as observed by F-actin immunofluorescence imaging (FIG. 4C, left panel). F-actin polarization was evident in about 80% of each treatment group of cells as in the control, untreated cells (FIG. 4C, right panel).

## Fc1cccc(C2Nc3ccc(F)cc3C3C=CCC32)c1 (centres unmarked) [Compound 100]
[1]; FIG. 5C
  superoxide inhibition (NBT), Phox-I2 analogs: profound superoxide inhibition
LPS-induced ALI in mice
  lung histology: neutrophil infiltration, alveoli wall thickness, lung architecture: attenuated
[2]
  ROS inhibitory activity, Phox-I2 analogs: retain activity

## Fc1cccc([C@H]2Nc3ccc(F)cc3[C@@H]3OCCC[C@H]23)c1 [Compound 101]
[1]
  ROS inhibition (NBT positive cells): highest level of ROS inhibition
[1]; 0.1 to 10 μM, FIG. 10
  ROS inhibition, dose response (NBT): most potent ROS inhibitor

## Fc1cccc([C@@H]2Nc3ccc(Br)cc3[C@@H]3C=CC[C@@H]32)c1 [Compound 102]
[1]
  ROS inhibition (NBT positive cells): highest level of ROS inhibition

## Fc1ccc2c(c1)[C@@H]1C=CC[C@@H]1[C@H](c1ccc(Cl)s1)N2 [Compound 103]
[1]
  ROS inhibition (NBT positive cells): highest level of ROS inhibition

## Fc1ccc2c(c1)[C@@H]1C=CC[C@@H]1[C@H](c1cccc(Cl)c1)N2 [Compound 106]
[1]
  ROS inhibition (NBT positive cells): highest level of ROS inhibition

## Fc1cccc(C2Nc3ccc(F)cc3C3C=CCCC32)c1 (centres unmarked) [Compound 109]
neutrophils
  toxicity to neutrophils: toxic to neutrophils

## c1ccc2c(c1)[I+]c1ccccc1-2 [DPI, diphenyleneiodonium]
dHL-60 cells [3]
  levels of superoxide already produced: do not affect

## CC(=O)N[C@@H](CS)C(=O)O [NAC, reference compound]
dHL-60 cells [4]
  ROS inhibition after wash: retained the ability to inhibit ROS production

## CCN(CC)CCCC(C)Nc1nc(C)cc(Nc2ccc3nc(C)cc(N)c3c2)n1 (centres unmarked) [NSC23766, reference compound]
dHL-60 cells [4]
  ROS inhibition after wash: retained the ability to inhibit ROS production
[5]
  cell apoptosis (Annexin V): no detectable effect on cell apoptosis
Pak
  phosphorylated Pak levels: abrogated
dHL-60 cells [3]
  levels of superoxide already produced: do not affect

## COC(=O)Nc1nc2ccc(C(=O)c3cccs3)cc2[nH]1 [Nocodazole, reference compound]
[6]
  cells with F-actin polarization: ~20%

## COc1cc(C(C)=O)ccc1O [apocyanin]
dHL-60 cells [3]
  levels of superoxide already produced: do not affect
